The text below walks through data of ChEMBL document CHEMBL1159224, “A new cytotoxic dihydroxy sterol from the soft coral Alcyonium patagonicum” (J Nat Prod, 1995).

The subject of this experiment is P388. As to the kind of experiment: Cytotoxicity against mouse P388 cells. Type of experiment: functional, cell-based.

Molecules are shown by their SMILES. Values after ≈ are worked out from the molar mass of the structure shown.

For `C=C(CC[C@@H](C)[C@H]1CC[C@H]2[C@@H]3C[C@@H](O)C4=C[C@@H](O)CC[C@]4(C)[C@H]3CC[C@]12C)C(C)C`, the IC50 is 1 µg/mL (≈ 2.41 µM).

One may read the IC50 as the point on the concentration scale where inhibition reaches its midpoint.
